Square brackets hold non-standard residues; d marks the D form. Peptide text beside a SMILES is read from it. * marks the point of attachment. ξ: configuration not given here. Cbz = O=C(OCc1ccccc1)*; Boc = CC(C)(C)OC(=O)*; ξV = CC(C)C(N)C(=O)O; CF3 = FC(F)(F)*; Sar = CNCC(=O)O
Tests used:
[1] = biological target: T1, Neutrophil elastase (Homo sapiens, UniProt P08246); assay: In vitro inhibitory activity against human leukocyte elastase
T1 sequence (P08246 whole entry): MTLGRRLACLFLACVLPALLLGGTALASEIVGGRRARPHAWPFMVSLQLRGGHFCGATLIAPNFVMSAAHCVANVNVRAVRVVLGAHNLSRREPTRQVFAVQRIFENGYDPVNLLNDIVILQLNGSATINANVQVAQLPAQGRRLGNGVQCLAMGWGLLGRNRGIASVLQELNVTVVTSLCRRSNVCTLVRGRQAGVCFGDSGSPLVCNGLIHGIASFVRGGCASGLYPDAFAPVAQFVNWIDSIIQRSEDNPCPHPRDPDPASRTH

[2] = tested on: Cricetinae gen. sp.; assay: Compound was evaluated for inhibition of Elastase-induced Pulmonary hemorrhage (EPH) in hamsters at the dose of 20 micro/mL); type: functional; set-up: unit not given here
[3] = tested on: Cricetinae gen. sp.; assay: Compound was evaluated for inhibition of Elastase-induced Pulmonary hemorrhage (EPH) in hamsters at the dose of 30 micro/mL); type: functional
[4] = tested on: Cricetinae gen. sp.; assay: Compound was evaluated for inhibition of Elastase-induced Pulmonary hemorrhage (EPH) in hamsters at the dose of 10 micro/mL); type: functional
[5] = tested on: Cricetinae gen. sp.; assay: Compound was evaluated for inhibition of Elastase-induced Pulmonary hemorrhage (EPH) in hamsters at the dose of 3 micro/mL); type: functional
[6] = tested on: Cricetinae gen. sp.; assay: Compound was evaluated for inhibition of Elastase-induced Pulmonary hemorrhage (EPH) in hamsters at the dose of 1 micro/mL); type: functional
[7] = tested on: Cricetinae gen. sp.; assay: Compound was evaluated for inhibition of Elastase-induced Pulmonary hemorrhage (EPH) in hamsters at the dose of 100 micro/mL); type: functional

Row | Structure (SMILES) | IC50 [1] | further results
1 | CC(C)C(NC(=O)CN(C(=O)OCc1ccccc1)C1Cc2ccccc2C1)C(=O)C(F)(F)F (stereo not drawn) | > 5000 nM | 
2 | CC(C)C(NC(=O)C1Cc2ccccc2CN1C(=O)[C@@H](NC(=O)OCc1ccccc1)C(C)C)C(=O)C(F)(F)F (stereo in doubt; 20y) | 233 nM | 
3 | CC(C)C(NC(=O)[C@H]1CCCN1C(=O)[C@@H](NC(=O)OC(C)(C)C)C(C)C)C(=O)C(F)(F)F (stereo partly drawn) | 172 nM | 
4 | CC(C)C(NC(=O)CN(C(=O)[C@@H](NC(=O)c1ccc(C(=O)NS(=O)(=O)c2ccc(Br)cc2)cc1)C(C)C)C1Cc2ccccc2C1)C(=O)C(F)(F)F (stereo partly drawn) | 149 nM | 
5 | CC(C)C(NC(=O)C1Cc2ccccc2CN1C(=O)[C@@H](NC(=O)c1ccc(C(=O)NS(=O)(=O)c2ccc(Cl)cc2)cc1)C(C)C)C(=O)C(F)(F)F (stereo partly drawn) |  | Max hemorrhage [2]: 88.4
6 | CC(C)C(NC(=O)CN(C(=O)[C@@H](NC(=O)c1ccc(C(=O)NS(=O)(=O)c2ccc(Cl)cc2)cc1)C(C)C)C1Cc2ccccc2C1)C(=O)C(F)(F)F (stereo partly drawn) |  | Max hemorrhage [3]: 99.3; Inhibition of elastase-induced pulmonary hemorrhage [4]: 90.5; Max hemorrhage [5]: 58.1
7 | CC(C)[C@H](NC(=O)c1ccc(C(=O)NS(=O)(=O)c2ccc(Cl)cc2)cc1)C(=O)N(CC(=O)NC(C)(C)C(=O)C(F)(F)F)C1Cc2ccccc2C1 | > 5000 nM | 
8 | CC(C)C(NC(=O)C1Cc2ccccc2CN1C(=O)[C@@H](NC(=O)OCc1ccccc1)C(C)C)C(=O)C(F)(F)F (stereo in doubt; 20z) | 73 nM | 
9 | CC(NC(=O)CN(C(=O)[C@@H](NC(=O)c1ccc(C(=O)NS(=O)(=O)c2ccc(Cl)cc2)cc1)C(C)C)C1Cc2ccccc2C1)C(=O)C(F)(F)F (stereo partly drawn) | 817 nM | 
10 | CC(C)[C@H](NC(=O)OCc1ccccc1)C(=O)N(CC(=O)NCC(=O)C(F)(F)F)C1Cc2ccccc2C1 | > 5000 nM | 
11 | CC(C)[C@H](NC(=O)CN(C(=O)[C@@H](NC(=O)c1ccc(C(=O)NS(=O)(=O)c2ccc(Cl)cc2)cc1)C(C)C)C1Cc2ccccc2C1)C(=O)c1ccc(C(F)(F)F)cc1 | 5100 nM | Inhibition of elastase-induced pulmonary hemorrhage [4]: 7.7
12 | CC(C)C(NC(=O)c1ccc(C(=O)NS(=O)(=O)c2ccc(Br)cc2)cc1)C(=O)N1CCC[C@H]1C(=O)N[C@H](C(=O)C(F)(F)F)C(C)C (stereo partly drawn) |  | Inhibition of elastase-induced pulmonary hemorrhage [4]: 98.5; Max hemorrhage [5]: 79.4; Max hemorrhage [6]: 33.3
13 | CC(C)C(NCCN(C(=O)[C@@H](NC(=O)c1ccc(C(=O)NS(=O)(=O)c2ccc(Cl)cc2)cc1)C(C)C)C1Cc2ccccc2C1)C(=O)C(F)(F)F (stereo partly drawn) | 5000 nM | Inhibition of elastase-induced pulmonary hemorrhage [4]: 2.7
14 | CCOC(=O)N1CCC(N(CC(=O)NC(C(=O)C(F)(F)F)C(C)C)C(=O)[C@@H](NC(=O)c2ccc(C(=O)NS(=O)(=O)c3ccc(Cl)cc3)cc2)C(C)C)CC1 (stereo partly drawn) | 57 nM | Max hemorrhage [2]: 98.4
15 | CC(C)C(NC(=O)OCc1ccccc1)C(=O)C(F)(F)F (stereo not drawn) | > 5000 nM | 
16 | COc1ccc(CCN(CC(=O)NC(C(=O)C(F)(F)F)C(C)C)C(=O)[C@@H](NC(=O)c2ccc(C(=O)NS(=O)(=O)c3ccc(Cl)cc3)cc2)C(C)C)cc1OC (stereo partly drawn) | 84 nM | 
17 | CC(C)C(NC(=O)CN(C(=O)[C@@H](NC(=O)c1ccc(C(=O)NS(=O)(=O)c2ccc(Cl)cc2)cc1)C(C)C)C1CCCCCC1)C(=O)C(F)(F)F (stereo partly drawn) | 175 nM | Max hemorrhage [2]: 84.3
18 | CC(C)C(NC(=O)C1CCCN1C(=O)[C@@H](NC(=O)OC(C)(C)C)C(C)C)C(=O)C(F)(F)F (stereo partly drawn) | 65 nM | 

Row | Structure (SMILES) | IC50 [1] | further results
19 | CC(C)C(NC(=O)CN(C(=O)[C@@H](NC(=O)c1ccc(C(=O)NS(=O)(=O)c2ccc(Cl)cc2)cc1)C(C)C)C1CCCCCCC1)C(=O)C(F)(F)F (stereo partly drawn) | 67 nM | Inhibition of elastase-induced pulmonary hemorrhage [4]: 96.7
20 | CC(C)C(NC(=O)CN(C(=O)[C@@H](NC(=O)c1ccc(C(=O)NS(=O)(=O)c2ccc(Cl)cc2)cc1)C(C)C)C1CC2CCC1C2)C(=O)C(F)(F)F (stereo partly drawn) |  | Max hemorrhage [2]: 93.8
21 | CC(C)C(NC(=O)CN(Cc1ccccc1)C(=O)[C@@H](NC(=O)c1ccc(C(=O)NS(=O)(=O)c2ccc(Cl)cc2)cc1)C(C)C)C(=O)C(F)(F)F (stereo partly drawn) | 217 nM | 
22 | CC(C)C(NC(=O)CN(C)C(=O)[C@@H](NC(=O)OCc1ccccc1)C(C)C)C(=O)C(F)(F)F (stereo partly drawn) (Cbz-Val-[Sar]-[ξV]-CF3) | 153 nM | 
23 | CC(C)C(NC(=O)CN(C(=O)[C@@H](NC(=O)c1ccc(C(=O)NS(=O)(=O)c2ccc(Cl)cc2)cc1)C(C)C)C1CCCC1)C(=O)C(F)(F)F (stereo partly drawn) | 92 nM | Max hemorrhage [2]: 99.2
24 | CCOC(=O)N1CCC(N(CC(=O)NC(C(=O)C(F)(F)F)C(C)C)C(=O)[C@@H](NC(=O)OCc2ccccc2)C(C)C)CC1 (stereo partly drawn) | 507 nM | 
25 | CC(C)C(NC(=O)CN(Cc1ccco1)C(=O)[C@@H](NC(=O)c1ccc(C(=O)NS(=O)(=O)c2ccc(Cl)cc2)cc1)C(C)C)C(=O)C(F)(F)F (stereo partly drawn) | 138 nM | Inhibition of elastase-induced pulmonary hemorrhage [4]: 96.2
26 | CC(C)C(NC(=O)CN(C(=O)[C@@H](NC(=O)OCc1ccccc1)C(C)C)C1Cc2ccccc2C1)C(=O)C(F)(F)F (stereo partly drawn) |  | Max hemorrhage [2]: 24.2
27 | CC(C)[C@H](NC(=O)c1ccc(C(=O)NS(=O)(=O)c2ccc(Cl)cc2)cc1)C(=O)N(CC(=O)NC(Cc1ccccc1)C(=O)C(F)(F)F)C1Cc2ccccc2C1 (stereo partly drawn) | > 5000 nM | Max hemorrhage [2]: 43.8
28 | CC(C)C(NC(=O)CN(C)C(=O)[C@@H](NC(=O)c1ccc(C(=O)NS(=O)(=O)c2ccc(Cl)cc2)cc1)C(C)C)C(=O)C(F)(F)F (stereo partly drawn) | 52 nM | 
29 | CCOC(=O)CCC(=O)Nc1nc(/C(=N\OC)C(=O)N[C@H](C(=O)N(CC(=O)NC(C(=O)C(F)(F)F)C(C)C)C2Cc3ccccc3C2)C(C)C)cs1 (stereo partly drawn) | 452 nM | 
30 | CC(C)[C@H](NC(=O)CN(C(=O)[C@@H](NC(=O)OCc1ccccc1)C(C)C)C1Cc2ccccc2C1)C(=O)c1ccc(C(F)(F)F)cc1 | > 5000 nM | 
31 | CC(C)C(NC(=O)CN(CC1CCCO1)C(=O)[C@@H](NC(=O)c1ccc(C(=O)NS(=O)(=O)c2ccc(Cl)cc2)cc1)C(C)C)C(=O)C(F)(F)F (stereo partly drawn) | 30 nM | 
32 | CC(C)C(NC(=O)CNC(=O)[C@@H](NC(=O)c1ccc(C(=O)NS(=O)(=O)c2ccc(Cl)cc2)cc1)C(C)C)C(=O)C(F)(F)F (stereo partly drawn) | 73 nM | Max hemorrhage [2]: 85.1
33 | CC(=O)OCC1=C(C(=O)OC(C)(C)C)N2C(=O)[C@@H](C(C)=O)C2S(=O)(=O)C1 (stereo partly drawn) |  | Max hemorrhage [7]: 0
34 | CC(C)C(NC(=O)CNC(=O)[C@@H](NC(=O)OC(C)(C)C)C(C)C)C(=O)C(F)(F)F (stereo partly drawn) (Boc-Val-Gly-[ξV]-CF3) | 153 nM | 
35 | CC(C)C(NCCN(C(=O)[C@@H](NC(=O)OC(C)(C)C)C(C)C)C1Cc2ccccc2C1)C(=O)C(F)(F)F (stereo partly drawn) | > 5000 nM | 

— ChEMBL document CHEMBL1125371, “Inhibition of human leukocyte elastase (HLE) by N-substituted peptidyl trifluoromethyl ketones” (J Med Chem, 1992)
